Reference: patent US20230183703A1, “COMPOSITIONS AND METHODS FOR TREATING AND DETECTING CORONAVIRUS INFECTION” (HOWARD UNIVERSITY, priority 2020, published 2023)

Test system: SARS-CoV-2
Assay type: cell-based
Conditions: result in words

Substance: A25L: SEQ ID NO: 2: 10-nucleotide linker GGAGAATGAC sandwiched between two copies of a 25-mer poly(dA) sequence (DNA AAAAAAAAAAAAAAAAAAAAAAAAAGGAGAATGACAAAAAAAAAAAAAAAAAAAAAAAAA; further chemistry not given here)
- inhibition of SARS-CoV-2 proliferation in Vero-76 cells: markedly inhibited

Substance: A25: 5′-GGAGAATGACA(25)-3′, SEQ ID NO: 1: 10-nucleotide linker attached to 5′-end of a 25-mer poly(dA) sequence (DNA GGAGAATGACAAAAAAAAAAAAAAAAAAAAAAAAA; further chemistry not given here)
- inhibition of SARS-CoV-2 proliferation in Vero-76 cells: markedly inhibited
